Reference: US7868173B2, “Prodrugs of benzoquinolizine-2-carboxylic acid” (Wockhardt Limited, priority 2006, dated 2011)

Tests used:
[1] = Solubility analysis: aqueous solubility in buffer at physiological pH; type: physicochemical; settings: 25-30° C.
Experimental: Solubility analysis: Method for determining aqueous solubility at different physiological pH at 25-30° C. temperature: To accurately weighed amount of test substance, particular buffer solution was added in portion (about 50 microliter portions) at 25-30° C. temperature till solid is completely dissolved and clear solution is obtained.

[2] = Pharmacokinetic (PK) study in Sprague Dawley rats, oral dose; type: in vivo; settings: rat
Experimental: Method for pharmacokinetic (PK) study in Sprague Dawley rats: Pharmacokinetic study was conducted on male Sprague Dawley rats weighing 200-220 g fasted overnight. (2′S,5S)-9-fluoro-6,7-dihydro-8-(4-L-alaninyloxy-piperidin-1-yl)-5-methyl-1-oxo-1H,5H-benzo[i,j]-quinolizine-2-carboxylic acid methanesulfonic acid salt (A), (2′S,5S)-9-fluoro-6,7-dihydro-8-(4-L-alaninyloxy-piperidin-1-yl)-5-methyl-1-oxo-1H,5H-benzo[i,j]quinolizine-2-carboxylic acid hydrochloride salt (B) and (2′S,5S)-9-fluoro-6,7-dihydro-8-(4-L-valinyloxy-piperidin-1-yl)-5-methyl-1-oxo-1H,5H-benzo[i,j]quinolizine-2-carboxylic acid methanesulfonic acid salt (C) were dissolved in Milli Q water. Compounds A, B and C were administered at the dose of 50 mg/kg orally calculated on the basis of active ingredient. (5S)-9-fluoro -6,7-dihydro-8-(4-hydroxy-piperidin-1-yl)-5-methyl-1-oxo-1H,5H-benzo[i,j]quinolizine-2-carboxylic acid L-arginine salt (D) was dissolved in 1% Tween prior to use. Compounds A and D were administered at the dose of 200 mg/kg orally calculated on the basis of active ingredient. Dose volume was 0.5 ml/200g. Blood samples were collected at predetermined time intervals i.e. 0, 0.5, 1, 2, 4, 6 & 8 h in eppendorff vials containing 10 μl saturated solution of sodium fluoride. Plasma was collected after centrifugation of blood sample at 10000 rpm for 10 min. Plasma samples were analyzed on HPLC for determining drug levels. PK parameters AUC, Cmax were calculated by non-compartmental analysis by using Winnonlin software.

[3] = rats, intravenous route; cited from earlier work
[4] = Oral bioavailability in animals; type: in vivo
[5] = repeated intravenous administration, injectable form; cited from earlier work
[6] = over the pH range 8.0-9.5 at 28° C.; cited from earlier work
[7] = as compared to D, 50 mg/kg per os dose
[8] = as compared to B, 50 mg/kg per os dose
[9] = as compared to D, 200 mg/kg per os dose

## CC(C)[C@H](N)C(=O)OC1CCN(c2c(F)cc3c(=O)c(C(=O)O)cn4c3c2CC[C@@H]4C)CC1.CS(=O)(=O)O
[1]
  Solubility (mg/ml) at pH 7: >200 mg/ml

## C[C@H](N)C(=O)OC1CCN(c2c(F)cc3c(=O)c(C(=O)O)cn4c3c2CC[C@@H]4C)CC1.Cl
[1]
  Solubility (mg/ml) at pH 7: 4 mg/ml

## CC(C)[C@H](N)C(=O)OC1CCN(c2c(F)cc3c(=O)c(C(=O)O)cn4c3c2CC[C@@H]4C)CC1.CS(=O)(=O)O [C, (2′S,5S)-9-fluoro-6,7-dihydro-8-(4-L-valinyloxy-piperidin-1-yl)-5-methyl-1-oxo-1H,5H-benzo[i,j]quinolizine-2-carboxylic acid methanesulfonic acid salt]
[2]; [7]
  % Increase in AUC: 92%
  % Increase in Cmax: 97%

## CC(C)[C@H](N)C(=O)OC1CCN(c2c(F)cc3c(=O)c(C(=O)O)cn4c3c2CC[C@@H]4C)CC1 [(2′S,5S)-9-fluoro-6,7-dihydro-8-(4-L-valinyloxy-piperidin-1-yl)-5-methyl-1-oxo-1H,5H-benzo[i,j]quinolizine-2-carboxylic acid, reference compound]
[1]
  Solubility (mg/ml) at pH 7: <1 mg/ml

## C[C@H]1CCc2c(N3CCC(O)CC3)c(F)cc3c(=O)c(C(=O)[O-])cn1c23.[Na+] [S-(−)-9-fluoro-6,7-dihydro-8-(4-hydroxypiperidin-1-yl)-5-methyl-1-oxo-1H,5H-benzo[i,j]quinolizine-2-carboxylic acid sodium salt]
[3]
  propensity to cause phlebitis: high propensity to cause phlebitis

## CS(=O)(=O)O.C[C@H](N)C(=O)OC1CCN(c2c(F)cc3c(=O)c(C(=O)O)cn4c3c2CC[C@@H]4C)CC1 [A, (2′S,5S)-9-fluoro-6,7-dihydro-8-(4-L-alaninyloxy-piperidin-1-yl)-5-methyl-1-oxo-1H,5H-benzo[i,j]-quinolizine-2-carboxylic acid methanesulfonic acid salt]
[1]
  Solubility (mg/ml) at pH 7: >200 mg/ml
[2]; [8]
  % Increase in AUC: 175%
  % Increase in Cmax: 300%
[2]; [9]
  % Increase in AUC: 120%
  % Increase in Cmax: 200%

## C[C@H]1CCc2c(N3CCC(O)CC3)c(F)cc3c(=O)c(C(=O)O)cn1c23.N=C(N)NCCC[C@H](N)C(=O)O [(5S)-9-fluoro-6,7-dihydro-8-(4-hydroxy-piperidin-1-yl)-5-methyl-1-oxo-1H,5H-benzo[i,j]quinolizine-2-carboxylic acid L-arginine salt]
[3]
  propensity to cause phlebitis: lower propensity to cause phlebitis

## C[C@H]1CCc2c(N3CCC(O)CC3)c(F)cc3c(=O)c(C(=O)O)cn1c23.N=C(N)NCCC[C@H](N)C(=O)O.O.O.O.O [S-(−)-9-fluoro-6,7-dihydro-8-(4-hydroxypiperidin-1-yl)-5-methyl-1-oxo-1H,5H-benzo[i,j]quinolizine-2-carboxylic acid L-arginine salt tetrahydrate]
[4]
  oral bioavailability: poor
[5]
  venous inflammation: not causing venous inflammation

## S-(−)-9-fluoro-6,7-dihydro-8-(4-hydroxypiperidin-1-yl)-5-methyl-1-oxo-1H,5H-benzo[i,j]quinolizine-2-carboxylic acid
[1]
  Solubility (mg/ml) at pH 7: <1 mg/ml
[4]
  oral bioavailability: poor
[6]
  aqueous solubility: 800 to 2000 µg/mL
